Reference: patent publication US20250262209A1, “TREATMENT OF GASTROINTESTINAL DISEASES” (Aclipse Two, Inc., priority 2022, published 2025)

Legend:
[1] = test system: TNF-α, IL-10, CCL2, and IL-1β gene expression in colon; assay: QT-PCR gene expression in colon of the DSS-induced IBD model; type: in vivo, mice
Method: Animals were euthanized by CO2 at the end of study. Colon length and colon weight (cecum is not included) were recorded, and macroscopic changes were scored based on Table 2. The colon was cleaned using saline, and all feces were removed before weight measurement. The middle part of colon was collected in cassette and fixed in 10% neutral buffered formalin (NBF) for H&E and PAS staining. For left colon, mucosal from colon surface was removed and then snap frozen in liquid nitrogen and store at −80° C. for QT-PCR analysis of TNF-α, IL-10, CCL2, and IL-1β. QT-PCR primers were purchased from Sangon Biotech Co., Ltd.
Treatment of Tissue before RNA Extraction are as follows. • (a) Remove mucosal from colon surface. Cut colon tissue into small pieces on ice. • (b) Weight out the tissue no more than 30 mg and transfer the tissue into a lysing matrix D tube. Totally 700 µL Trizol was added in the tissue and lysing matrix D immediately. • (c) Put the lysing matrix D tubes which contain tissue, Lysing matrix, and 700 μL Trizol into the FastPrep™-24 Sample Preparation System. • (d) Set at speed 6 and grind for 2 min • (e) 140 μL chloroform was added into the tubes, shake the tubes vigorously by vortex for 15 seconds. Incubate at room temperature for 2 min. • (f) 12000 rpm centrifuge for 10 min at 4° C., • (g) Pipet the supernatant to 96 well 2.2 mL deep well plate
RNA Sample Preparation procedure is as follows. • (a) 600 μL Binding Buffer was added into column 1 and 7 • (b) 600 μL DNase Stop Buffer was added into column 2 I 8 • (c) 600 μL Wash Buffer was added into column 3, 4 and 9, 10 • (d) 100 μL Elution Buffer was added into column 5Id 11 • (e) 190 μL DEPC water and 10 μL MagaBio® Reagent was added into column 6 and 12 • (f) Transfer 300 μL of the colorless, upper phase containing the RNA to column 1 and 7 • (g) Put the test plate in nucleic acid purifier • (h) Set the instrument as below in Table 3.
The elution was transferred into a clean nuclease-free centrifuge tube and the RNA sample was store at −80° C.
To use the Takara Prime Script™ Reverse Transcription System, Mix and briefly centrifuge each component before use. Combine the following component volume as in Table 4.
• (a) Store on ice until reverse transcription mix is added. Centrifuge 10 seconds in a micro-centrifuge. Heat in a 42° C. heat block for 2 minutes, 4° C. immediately chill in ice water for at least 5 minutes. • (b) Prepare the reverse transcription reaction mix, 10 μL for each cDNA reaction. Combine on ice, in the order listed. Component volume of step b) (Table 5).
• (c) Combine 20 μL of reverse transcription mix, Centrifuge 10 seconds in a microcentrifuge. • (d) Anneal in a heat block at 37° C. for 15 min, 85° C. for 5 sec, 4° C. save on S100™ Thermal Cycler. • (e) Aliquot the cDNA sample and store at −20° C.
• (a) Make qPCR reaction mixture in one tube based on assay number and replicas. • (b) Prepare primers and master mix mixture according to manufacturer's instructions. And aliquot 9 μL of mixture into each well of the 384 qPCR plate. • (c) Transfer 1 μL of cDNA into each well of a 384 qPCR plate which already contain 9 μL of mixture. Briefly centrifuge the plate. • (d) Seal the plate • (e) Mix thoroughly, spin briefly • (f) Run the PCR Reaction • (g) Place the reaction plate in the instrument. • (h) Set the Applied Biosystems ViiA™ 7 cycling conditions as in Table 6.
Data were expressed as mean±SD. The 2-ΔΔCT method was used to analyze the mRNA expression level. The results were normalized for RNA input using glyceraldehydes-3-phosphate dehydrogenase (GAPDH or other internal controls). Statistical analysis was performed using, one-way ANOVA followed if significant by post-hoc Dunnett test. […] The difference was considered significant when p<0.05

[2] = test system: monocytes from PBMC, M1-to-M2 macrophage repolarization; assay: M1-to-M2 macrophage repolarization assay; type: cell-based, human
Text: The purpose of this study was to evaluate the effects of lobeglitazone and other thiazolidinediones on M1-to-M2 macrophage repolarization. The test articles and vehicles used in this study were lobeglitazone sulfate, pioglitazone HCl, and rosiglitazone.
M1-to-M2 macrophage repolarization assay timeline were as follows in Table 13.
Drug concentrations tested in the M1 differentiation assay are as in Table 14.
• (1) Isolate monocytes from PBMC using StemCell® monocyte isolation kit. • (2) Count cell and adjust the cell density to 0.5×10^6 cells/ml with fresh complete differentiation medium (add 10 μl M-CSF stock (100 μg/ml) 10 ml cell mixture to a final concentration of 50 ng/ml). • (3) Seed isolated monocyte 100 μL per well on 96-well plate. • (4) On day 4, add additional 100 μl medium containing M-CSF • (5) On day 6, add stimulator at 5× final concentration (200 μL medium in each well) to a final concentration of 50 ng/ml. • (6) On day 8, remove medium and replenish with 200 μL cytokine free medium, then add test compound (final concentration in μM) and incubate for 4 days. • (7) On day 12, add IL-4 and incubate for 2 days (add 50 μL of 100 ng/ml IL-4 to each well containing 200 μL medium to reach 20 ng/ml). • (8) On day 14, spin down the plates at 300×g for 5 min and collect the supernatant for cytokine quantification. • (9) M1 and M2 associated macrophage cytokines of interest are as follows in Table 15.
The cells are then collected for flow analysis of viability/CD11c/CD163/CD206.
Cell surface marker CD163, CD11c, and CD206 were applied to characterize M2 repolarization via flow cytometry. Controls included No stain and staining with all surface marker antibodies to confirm the optimization of gating strategy.

[3] = 0.36 mg/kg PO QD 10 days, vs model
[4] = 1.20 mg/kg PO QD 10 days, vs model
[5] = 3.61 mg/kg PO QD 10 days, vs model

Q: Which results are given for `COc1ccc(Oc2cc(N(C)CCOc3ccc(CC4SC(=O)NC4=O)cc3)ncn2)cc1` (stereo not shown) [lobeglitazone, 5-(4-(2-((6-(4-Methoxyphenoxy)pyrimidin-4-yl)(methyl)amino)ethoxy)benzyl)thiazolidine-2,4-dione]?
A: CCL2 gene expression levels in colon [1, 3]: led to decreases; IL-1B gene expression levels in colon [1, 3]: significantly decreased; TNF-α gene expression levels in colon [1, 3]: significantly decreased; CCL2 gene expression levels in colon [1, 4]: led to decreases; IL-1B gene expression levels in colon [1, 4]: significantly decreased; TNF-α gene expression levels in colon [1, 4]: significantly decreased; CCL2 gene expression levels in colon [1, 5]: significantly decreased; IL-1β gene expression levels in colon [1, 5]: did not change; TNF-α gene expression levels in colon [1, 5]: didn't show obvious changes; IL-10 gene expression levels in colon ([1]; lobeglitazone groups (0.36, 1.20, 3.61 mg/kg PO QD 10 days)): did not change significantly; GI inflammation, as evidenced by the gene expression data ([1]; mouse DSS model, 0.36 and 1.20, and 3.61 mg/kg): significantly decreased; concentration at which M1-to-M2 repolarization was promoted (M2 macrophage surface markers, flow cytometry) ([2]; CD163, CD11c, CD206, lowest concentration with effect): ~0.05 µM; concentration showing remarkable promotion of MDC expression ([2]; cytokine analysis (MSD), day 14 supernatant): 0.1 µM
